Legend:
[1] = system: voltage-dependent calcium channels; assay: Patch-Clamp measurement of current through voltage-dependent calcium channels in posterior root ganglia neurons; assay type: cell-based; conditions: neuron cultures from adult rat posterior root ganglia; voltage jumps from −80 mV to 0 mV for 50 ms
Source text: Voltage-dependent calcium channels play an important role in the transmission of pain-related excitation in the nervous system. The blocking of these channels has been described as being helpful for the treatment of acute pain (KA Sluka (1998), JPET 287, 232-237; J Devulder et al. (2001), J Pain Sympt Management 22, 622-626). […] Neurons were dissected from posterior root ganglia of adult rats and placed in short-term culture. The cells were investigated electrophysiologically by the Patch-Clamp method (voltage terminal), and the flow of current through voltage-dependent calcium channels was measured after electrical stimulation (voltage jumps from −80 mV to 0 mV holding potential for 50 ms) in the presence and absence of ambroxol.

[2] = biological target: tetrodotoxin-resistant sodium channels (Rattus norvegicus, UniProt Q62968); assay type: cell-based; conditions: neuron cultures from the posterior root ganglia of adult rats; read-out: half-maximal inhibition of tetrodotoxin-resistant sodium channels
[3] = biological target: T1, human GluR1/2 receptors (Homo sapiens, UniProt P42261+P42262); assay: Patch-Clamp measurement of glutamate-induced membrane currents in HEK 293 cells expressing GluR1/2 receptors; assay type: cell-based; conditions: HEK 293 cells expressing human GluR1/2; 1 mM glutamate for 1 s, holding potential −80 mV
T1 construct: expressed in transfected cells; host or cells: HEK 293
Experimental: Ionotropic glutamate receptors of the AMPA sub-type are also essential for the excitatory neurotransmission. […] The blocking of AMPA receptors has been described as being helpful for the treatment of acute pain (e.g., ji Szekely et al. (1997), EJP 336, 143-154). HEK 293 cells which expressed functionally recombinant human GluR1/2 receptors were electrophysiologically investigated by the Patch-Clamp method ([…]). The administration of 1 mM glutamate (for 1 s at a holding potential of −80 mV) induced membrane currents which were inhibited by the joint administration of ambroxol.

[4] = system: Tetrodotoxin-sensitive currents; assay type: cell-based, rat; conditions: read-out: IC50 of tetrodotoxin-sensitive currents; neuron cultures from the posterior root ganglia of adult rats

T1 sequence (P42261 19-906): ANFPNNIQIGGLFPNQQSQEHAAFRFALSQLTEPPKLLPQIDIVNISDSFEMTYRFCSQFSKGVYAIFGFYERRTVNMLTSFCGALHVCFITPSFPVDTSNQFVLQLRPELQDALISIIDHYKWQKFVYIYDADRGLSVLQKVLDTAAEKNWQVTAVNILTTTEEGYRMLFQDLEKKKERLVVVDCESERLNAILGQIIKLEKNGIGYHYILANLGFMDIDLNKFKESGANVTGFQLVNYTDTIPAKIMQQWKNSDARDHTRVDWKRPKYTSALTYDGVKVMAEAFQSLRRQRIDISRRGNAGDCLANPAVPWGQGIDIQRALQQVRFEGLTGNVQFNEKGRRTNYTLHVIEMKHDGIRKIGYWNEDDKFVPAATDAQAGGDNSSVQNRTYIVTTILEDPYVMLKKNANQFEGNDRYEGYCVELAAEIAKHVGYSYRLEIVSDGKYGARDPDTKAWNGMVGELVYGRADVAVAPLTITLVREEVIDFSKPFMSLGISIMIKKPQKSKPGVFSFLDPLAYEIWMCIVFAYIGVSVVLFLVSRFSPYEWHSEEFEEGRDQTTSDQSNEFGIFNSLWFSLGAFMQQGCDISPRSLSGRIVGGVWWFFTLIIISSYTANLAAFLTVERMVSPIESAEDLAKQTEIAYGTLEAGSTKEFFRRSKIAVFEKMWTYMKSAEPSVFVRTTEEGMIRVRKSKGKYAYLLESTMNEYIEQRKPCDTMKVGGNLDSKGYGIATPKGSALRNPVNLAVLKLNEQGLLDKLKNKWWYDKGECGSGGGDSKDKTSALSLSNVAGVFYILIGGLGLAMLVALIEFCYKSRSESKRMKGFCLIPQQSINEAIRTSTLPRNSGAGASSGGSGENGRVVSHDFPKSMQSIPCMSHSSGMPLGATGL
T1 sequence (P42262 22-883 limits assumed): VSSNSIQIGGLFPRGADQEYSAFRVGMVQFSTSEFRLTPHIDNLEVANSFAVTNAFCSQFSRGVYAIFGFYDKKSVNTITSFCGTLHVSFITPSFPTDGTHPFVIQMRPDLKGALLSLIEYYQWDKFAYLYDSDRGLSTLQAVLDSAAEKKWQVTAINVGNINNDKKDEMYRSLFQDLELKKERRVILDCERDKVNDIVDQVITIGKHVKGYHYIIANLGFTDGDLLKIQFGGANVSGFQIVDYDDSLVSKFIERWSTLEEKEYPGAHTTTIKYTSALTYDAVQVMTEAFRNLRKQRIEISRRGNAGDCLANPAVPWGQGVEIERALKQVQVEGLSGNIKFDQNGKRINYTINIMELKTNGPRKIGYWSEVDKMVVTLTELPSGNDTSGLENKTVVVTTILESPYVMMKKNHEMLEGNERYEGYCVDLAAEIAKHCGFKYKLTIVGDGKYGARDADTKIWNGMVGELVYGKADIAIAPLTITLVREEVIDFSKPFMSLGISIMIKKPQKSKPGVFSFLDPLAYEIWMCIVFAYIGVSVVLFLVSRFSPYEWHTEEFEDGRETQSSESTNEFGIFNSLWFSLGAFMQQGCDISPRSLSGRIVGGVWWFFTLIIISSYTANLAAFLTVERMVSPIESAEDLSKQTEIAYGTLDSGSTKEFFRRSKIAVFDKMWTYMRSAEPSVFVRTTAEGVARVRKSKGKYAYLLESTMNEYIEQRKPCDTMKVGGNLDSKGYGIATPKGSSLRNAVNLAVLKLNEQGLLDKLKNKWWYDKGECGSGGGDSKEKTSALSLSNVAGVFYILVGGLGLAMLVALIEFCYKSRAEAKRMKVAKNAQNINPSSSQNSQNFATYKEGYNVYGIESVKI

`Nc1c(Br)cc(Br)cc1CN[C@H]1CC[C@H](O)CC1` [ambroxol, trans-4-(2-amino-3,5-dibromobenzylamino)cyclohexanol] was tested, and the “concentrations that block voltage-dependent calcium channels” value [1] was 10 to 1000 µM, the IC50 [2] was 35 µM and the “concentrations that inhibit glutamate-induced membrane currents” value [3] was 30 to 1000 µM. For the same compound, the IC50 [4] was greater than 100 µM.
